From ChEMBL document CHEMBL3734711, “Discovery of novel sphingosine kinase 1 inhibitors via structure-based hierarchical virtual screening” (Medchemcomm, 2015) come the findings set out here.

Activity calls are given as the source filed them. The calls are words filed in the database; no cut-off is given here.

In assay [1] the target is T1, Sphingosine kinase 2 (Homo sapiens, UniProt Q9NRA0).
T1 sequence (Q9NRA0 whole entry): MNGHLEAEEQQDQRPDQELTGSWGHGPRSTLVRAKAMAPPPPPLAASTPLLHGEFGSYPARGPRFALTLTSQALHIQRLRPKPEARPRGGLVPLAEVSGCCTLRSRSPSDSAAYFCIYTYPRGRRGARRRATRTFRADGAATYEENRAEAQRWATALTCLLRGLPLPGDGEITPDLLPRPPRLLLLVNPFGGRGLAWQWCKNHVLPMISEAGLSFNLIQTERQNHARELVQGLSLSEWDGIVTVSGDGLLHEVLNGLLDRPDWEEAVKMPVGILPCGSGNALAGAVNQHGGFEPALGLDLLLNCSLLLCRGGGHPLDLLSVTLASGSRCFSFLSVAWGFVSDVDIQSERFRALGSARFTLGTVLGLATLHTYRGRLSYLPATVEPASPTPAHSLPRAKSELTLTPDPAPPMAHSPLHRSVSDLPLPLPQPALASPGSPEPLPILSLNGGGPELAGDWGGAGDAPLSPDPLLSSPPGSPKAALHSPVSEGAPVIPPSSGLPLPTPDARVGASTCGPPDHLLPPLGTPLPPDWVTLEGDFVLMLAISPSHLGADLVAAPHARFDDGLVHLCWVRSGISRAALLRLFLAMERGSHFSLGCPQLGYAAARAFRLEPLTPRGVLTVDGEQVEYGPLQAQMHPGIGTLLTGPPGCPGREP
Description: Inhibition of human recombinant SphK2 preincubated for 5 mins followed by substrate addition measured for 60 mins by plate reader assay.

The target in assay [2] is T2, Sphingosine kinase 1 (Homo sapiens, UniProt Q9NYA1). Briefly: Inhibition of human recombinant SphK1 at 50 uM preincubated for 5 mins followed by substrate addition measured for 60 mins by plate reader assay.
T2 sequence (Q9NYA1 whole entry): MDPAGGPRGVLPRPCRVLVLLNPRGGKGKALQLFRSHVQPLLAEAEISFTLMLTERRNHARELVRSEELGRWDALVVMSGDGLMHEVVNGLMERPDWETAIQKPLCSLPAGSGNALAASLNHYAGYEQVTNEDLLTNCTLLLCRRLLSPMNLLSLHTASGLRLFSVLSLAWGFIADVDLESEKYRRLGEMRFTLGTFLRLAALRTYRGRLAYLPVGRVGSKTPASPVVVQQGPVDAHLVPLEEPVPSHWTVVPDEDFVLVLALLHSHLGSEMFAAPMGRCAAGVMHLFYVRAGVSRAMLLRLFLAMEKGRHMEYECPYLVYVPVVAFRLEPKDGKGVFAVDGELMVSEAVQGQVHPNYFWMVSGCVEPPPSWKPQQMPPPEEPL
The target in assay [3] is T3, Sphingosine kinase 2 (Homo sapiens) (UniProt Q9NRA0).
T3 sequence (whole entry): T1 sequence (Q9NRA0 whole entry)
Description: Inhibition of human recombinant SphK2 at 500 uM preincubated for 5 mins followed by substrate addition measured for 60 mins by plate reader assay.

For assay [4], the target named is T3, Sphingosine kinase 2 (Homo sapiens). Description: Inhibition of human recombinant SphK2 at 50 uM preincubated for 5 mins followed by substrate addition measured for 60 mins by plate reader assay.
In assay [5] the target is T2, Sphingosine kinase 1. Description: Inhibition of human recombinant SphK1 preincubated for 5 mins followed by substrate addition measured for 60 mins by plate reader assay.
The subject of assay [6] is U-937. Briefly: Antiproliferative activity against human U937 cells after 72 hrs by MTT assay. The class given is functional, cell-based. (In general: Tetrazolium assays rely on reduction of a dye to a coloured formazan, in cell work by metabolically active cells.)

What is called IC50 is the concentration at which inhibition is half-maximal. Take `CCCCCCCCCCCCC/C=C/[C@@H](O)[C@H](CO)N(C)C` [DIMETHYLSPINGOSINE]: the concentration for half-maximal inhibition (IC50) in assay [1] stood at 16.3 µM.
Usually inhibition stands for how much of the control response was suppressed. With `CCCOc1ccc(N2C(=O)CC(Nc3ccc(CCO)cc3)C2=O)cc1` (configuration not stated), the inhibition in assay [2] is > 60%. In addition, the inhibition entry in assay [3] and in assay [4] was “Active” throughout. In addition, the IC50 in assay [5] is 61.6 µM; in assay [1] it was 62.6 µM.
In the case of `O=C(N/N=C/c1cccc(OCc2ccccc2)c1)c1cc(O)c(O)c(O)c1`, in assay [2], the inhibition was > 60%. Further, the inhibition entry in assay [3] and in assay [4] was “Active” in each case. In addition, the values for the half-maximal inhibitory concentration (IC50) in assay [5] and in assay [1] were 23.1 µM and 17.1 µM, respectively. The Activity entry in assay [6] was “Dose-dependent effect”.
Turning to `CCCCCCCCCCCCCC(=O)Nc1nc2ccccc2[nH]1`, the inhibition in assay [2] is > 60%. Moreover, the inhibition result in assay [3] and in assay [4] was “Active” in each case. Further, the results for the half-maximal inhibitory concentration (IC50) in assay [5] and in assay [1] were 40.5 µM and 31.3 µM, respectively.
